The values below come from patent US20090281322A1, “THERAPEUTICALLY USEFUL SUBSTITUTED 1,7-DIPHENYL-1,2,3,5,6,7-HEXAHYDROPYRIDO[3,2,1-Ij]QUINOLINE COMPOUNDS” (ALLERGAN, INC., priority 2008, published 2009).

As a reminder, the IC50 is the point on the concentration scale where inhibition reaches its midpoint. Lower therefore signals greater potency in that assay.

This experiment deals with S1P3 receptor (Homo sapiens, UniProt Q99500). Put plainly: in vitro activity in the S1P3 receptor. The class given is cell-based. The conditions noted are these: for IC50: Activity potency nM. As for the experimental part:
The in vitro activity of these compounds in the S1P3 receptor was determined using the assay described in paragraph [0067] of United States Patent Application Publication No. 20070232682, which published on Oct. 4, 2007.

Chain of S1P3 receptor (Q99500 whole entry): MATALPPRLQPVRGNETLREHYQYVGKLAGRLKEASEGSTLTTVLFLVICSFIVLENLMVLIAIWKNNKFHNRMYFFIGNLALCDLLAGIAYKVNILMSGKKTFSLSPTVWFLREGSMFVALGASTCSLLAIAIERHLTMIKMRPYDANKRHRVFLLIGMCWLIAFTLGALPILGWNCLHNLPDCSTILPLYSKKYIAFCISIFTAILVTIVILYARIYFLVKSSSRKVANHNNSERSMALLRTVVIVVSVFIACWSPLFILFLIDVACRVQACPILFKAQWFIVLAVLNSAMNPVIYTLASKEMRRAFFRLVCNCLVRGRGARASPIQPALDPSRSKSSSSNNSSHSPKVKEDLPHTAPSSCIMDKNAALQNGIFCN

Turning to `O=C(Nc1cc2c3c(c1)C(c1ccccc1)CCN3CCC2c1ccccc1)OCCCCl` (stereo not drawn) [compound 205, 3-chloropropyl 1,7-diphenyl-1,2,3,5,6,7-hexahydropyrido[3,2,1-ij]quinolin-9-ylcarbamate], the IC50 was 8 nM.

For `O=C(Nc1cc2c3c(c1)C(c1ccccc1)CCN3CCC2c1ccccc1)N1CCOCC1` (stereo not drawn) [compound 983, N-(1,7-diphenyl-1,2,3,5,6,7-hexahydropyrido[3,2,1-ij]quinolin-9-yl)morpholine-4-carboxamide], the IC50 stood at 130 nM.

In turn, `O=C(Nc1cc2c3c(c1)C(c1ccccc1)CCN3CCC2c1ccccc1)OCc1ccccc1` (stereo not drawn) [compound 278, Benzyl 1,7-diphenyl-1,2,3,5,6,7-hexahydropyrido[3,2,1-ij]quinolin-9-ylcarbamate] registered an IC50 of 66 nM.

As for `C#CCOC(=O)Nc1cc2c3c(c1)C(c1ccccc1)CCN3CCC2c1ccccc1` (stereo not drawn) [compound 352, Prop-2-ynyl 1,7-diphenyl-1,2,3,5,6,7-hexahydropyrido[3,2,1-ij]quinolin-9-ylcarbamate], the half-maximal inhibitory concentration (IC50) amounted to 40 nM.

In turn, `COC(=O)Nc1cc2c3c(c1)C(c1cccc(F)c1)CCN3CCC2c1cccc(F)c1` (stereo not drawn) [compound 779, Methyl 1,7-bis(3-fluorophenyl)-1,2,3,5,6,7-hexahydropyrido[3,2,1-ij]quinolin-9-ylcarbamate] showed an IC50 of 23 nM.

`O=C(Nc1cc2c3c(c1)C(c1ccccc1)CCN3CCC2c1ccccc1)Oc1ccccc1` (stereo not drawn) [compound 277, Phenyl 1,7-diphenyl-1,2,3,5,6,7-hexahydropyrido[3,2,1-ij]quinolin-9-ylcarbamate] yielded an IC50 of 901 nM.

With `COC(=O)Nc1cc2c3c(c1)C(c1ccccc1)CCN3CCC2c1ccccc1` (stereo not drawn) [compound 272, methyl 1,7-diphenyl-1,2,3,5,6,7-hexahydropyrido[3,2,1-ij]quinolin-9-ylcarbamate], 8.3 nM corresponded to half-maximal inhibition (IC50). Compared with the last molecule, the IC50 is about 110-fold lower.

Molecule `CCCCCCNC(=O)Nc1cc2c3c(c1)C(c1ccccc1)CCN3CCC2c1ccccc1` (stereo not drawn) [compound 487, 1-(1,7-diphenyl-1,2,3,5,6,7-hexahydropyrido[3,2,1-ij]quinolin-9-yl)-3-hexylurea] had an IC50 of 301 nM.

As for `CCOC(=O)Nc1cc2c3c(c1)C(c1ccccc1)CCN3CCC2c1ccccc1` (stereo not drawn) [compound 273, Ethyl 1,7-diphenyl-1,2,3,5,6,7-hexahydropyrido[3,2,1-ij]quinolin-9-ylcarbamate], it took 63 nM to reach half-maximal inhibition (IC50).

For the molecule `CCCOC(=O)Nc1cc2c3c(c1)C(c1ccccc1)CCN3CCC2c1ccccc1` (stereo not drawn) [compound 275, Propyl 1,7-diphenyl-1,2,3,5,6,7-hexahydropyrido[3,2,1-ij]quinolin-9-ylcarbamate], the IC50 came to 12.2 nM.

On to `CCCNC(=S)Nc1cc2c3c(c1)C(c1ccccc1)CCN3CCC2c1ccccc1` (stereo not drawn) [compound 255, 1-(1,7-diphenyl-1,2,3,5,6,7-hexahydropyrido[3,2,1-ij]quinolin-9-yl)-3-propylthiourea], for which half-maximal inhibition (IC50) was put at 153 nM.

In turn, `CCCCNC(=O)Nc1cc2c3c(c1)C(c1ccccc1)CCN3CCC2c1ccccc1` (stereo not drawn) [compound 485, 1-Butyl-3-(1,7-diphenyl-1,2,3,5,6,7-hexahydropyrido[3,2,1-ij]quinolin-9-yl)urea] displayed an IC50 of 52 nM.

For `CCCCOC(=O)Nc1cc2c3c(c1)C(c1cccc(F)c1)CCN3CCC2c1cccc(F)c1` (stereo not drawn) [compound 202, Butyl 1,7-bis(3-fluorophenyl)-1,2,3,5,6,7-hexahydropyrido[3,2,1-ij]quinolin-9-ylcarbamate], the IC50 is 272 nM.

`CCCCCCNC(=S)Nc1cc2c3c(c1)C(c1ccccc1)CCN3CCC2c1ccccc1` (stereo not drawn) [compound 256, 1-(1,7-diphenyl-1,2,3,5,6,7-hexahydropyrido[3,2,1-ij]quinolin-9-yl)-3-hexylthiourea]: the IC50 was 78 nM.

In turn, `O=C(Nc1cc2c3c(c1)C(c1ccccc1)CCN3CCC2c1ccccc1)OCCF` (stereo not drawn) [compound 095, 2-fluoroethyl 1,7-diphenyl-1,2,3,5,6,7-hexahydropyrido[3,2,1-ij]quinolin-9-ylcarbamate] yielded an IC50 of 56 nM.

Turning to `C=CCCOC(=O)Nc1cc2c3c(c1)C(c1ccccc1)CCN3CCC2c1ccccc1` (stereo not drawn) [compound 354, But-3-enyl 1,7-diphenyl-1,2,3,5,6,7-hexahydropyrido[3,2,1-ij]quinolin-9-ylcarbamate], the “S1P3 % Inhibition” value stood at 97% and the IC50 was 16 nM.

`CC(C)COC(=O)Nc1cc2c3c(c1)C(c1ccccc1)CCN3CCC2c1ccccc1` (stereo not drawn) [compound 274, Isobutyl 1,7-diphenyl-1,2,3,5,6,7-hexahydropyrido[3,2,1-ij]quinolin-9-ylcarbamate] registered an IC50 of 64 nM.

The molecule `O=C(NCc1ccoc1)Nc1cc2c3c(c1)C(c1ccccc1)CCN3CCC2c1ccccc1` (stereo not drawn) [compound 258, 1-(1,7-diphenyl-1,2,3,5,6,7-hexahydropyrido[3,2,1-ij]quinolin-9-yl)-3-(furan-3-ylmethyl)urea] gave an IC50 of 59 nM.

For the molecule `CCCOC(=O)Nc1cc2c3c(c1)C(c1cccc(F)c1)CCN3CCC2c1cccc(F)c1` (stereo not drawn) [compound 094, Propyl 1,7-bis(3-fluorophenyl)-1,2,3,5,6,7-hexahydropyrido[3,2,1-ij]quinolin-9-ylcarbamate], inhibition was half-maximal at 234 nM (IC50).

The molecule `O=C(Nc1cc2c3c(c1)C(c1ccccc1)CCN3CCC2c1ccccc1)OCCCCCl` (stereo not drawn) [compound 206, 4-chlorobutyl 1,7-diphenyl-1,2,3,5,6,7-hexahydropyrido[3,2,1-ij]quinolin-9-ylcarbamate] returned an IC50 of 62 nM. Compared with the last molecule, the IC50 is about 3.8-fold lower.

On to `CC(C)(C)NC(=O)Nc1cc2c3c(c1)C(c1ccccc1)CCN3CCC2c1ccccc1` (stereo not drawn) [compound 148, 1-tert-butyl-3-(1,7-diphenyl-1,2,3,5,6,7-hexahydropyrido[3,2,1-ij]quinolin-9-yl)urea], for which the IC50 worked out at 38 nM. This IC50 lies about 1.6-fold lower than the previous one.

`C=CCNC(=O)Nc1cc2c3c(c1)C(c1ccccc1)CCN3CCC2c1ccccc1` (stereo not drawn) [compound 773, 1-allyl-3-(1,7-diphenyl-1,2,3,5,6,7-hexahydropyrido[3,2,1-ij]quinolin-9-yl)urea] returned an IC50 of 160 nM. This IC50 lies about 4.2-fold higher than the previous one.

Regarding `CCNC(=O)Nc1cc2c3c(c1)C(c1ccccc1)CCN3CCC2c1ccccc1` (stereo not drawn) [compound 484, 1-(1,7-diphenyl-1,2,3,5,6,7-hexahydropyrido[3,2,1-ij]quinolin-9-yl)-3-ethylurea], the IC50 amounted to 77 nM. Against the preceding molecule, the IC50 is about 2.1-fold lower.

Regarding `CC#CCOC(=O)Nc1cc2c3c(c1)C(c1ccccc1)CCN3CCC2c1ccccc1` (stereo not drawn) [compound 353, But-2-ynyl 1,7-diphenyl-1,2,3,5,6,7-hexahydropyrido[3,2,1-ij]quinolin-9-ylcarbamate], the “S1P3 % Inhibition” value is recorded as 98% and the IC50 came out at 13 nM.

`CCCCOC(=O)Nc1cc2c3c(c1)C(c1ccccc1)CCN3CCC2c1ccccc1` (stereo not drawn) [compound 276, Butyl 1,7-diphenyl-1,2,3,5,6,7-hexahydropyrido[3,2,1-ij]quinolin-9-ylcarbamate] showed an IC50 of 8.7 nM.

Take `CN(C)C(=O)Nc1cc2c3c(c1)C(c1ccccc1)CCN3CCC2c1ccccc1` (stereo not drawn) [compound 405, 3-(1,7-diphenyl-1,2,3,5,6,7-hexahydropyrido[3,2,1-ij]quinolin-9-yl)-1,1-dimethylurea]: half-maximal inhibition (IC50) required 131 nM.

Take `CCOC(=O)Nc1cc2c3c(c1)C(c1cccc(F)c1)CCN3CCC2c1cccc(F)c1` (stereo not drawn) [compound 093, Ethyl 1,7-bis(3-fluorophenyl)-1,2,3,5,6,7-hexahydropyrido[3,2,1-ij]quinolin-9-ylcarbamate]: half-maximal inhibition (IC50) was put at 48 nM.

For the molecule `O=C(NCCCl)Nc1cc2c3c(c1)C(c1ccccc1)CCN3CCC2c1ccccc1` (stereo not drawn) [compound 769, 1-(2-chloroethyl)-3-(1,7-diphenyl-1,2,3,5,6,7-hexahydropyrido[3,2,1-ij]quinolin-9-yl)urea], 374 nM corresponded to half-maximal inhibition (IC50).
